Data reported in patent publication US20200079757A1, “COMPOUNDS FOR THE TREATMENT OF RESPIRATORY DISEASES” (THE UNIVERSITY OF MELBOURNE, priority 2017, published 2020).

How the values were obtained:
[1] = test system: TNF-stimulated BEAS-2B cells; experiment: TNF-α-induced IL-8 and CSF-2 (GM-CSF) mRNA and supernatant protein in BEAS-2B cells (RT-qPCR, ELISA); assay type: cell-based; details: 1-10 μM 30 min prior to TNF-α 10 ng/ml 24 h, maximal at lowest concentration
Description: The primary assay for the activity of the novel CK1δ/ε inhibitors is the modulation of gene expression in the airway epithelial cell line, the BEAS-2B cells. The assay is conducted under several conditions. Generally, TGF-β or TNF-α is used to elicit fibrogenic or inflammatory genes, respectively. The agents are added at a concentration of 10 μM, or at the indicated concentrations for a period of 30 min prior to the addition of TGF-β/TNF-α which are incubated for a further 20 hours before the addition, in some experiments of the glucocorticoid, dexamethasone (Dex, 30 nM) for the final 4 hours of the experiment, prior to harvest of cellular RNA to measure by RT-qPCR the levels of mRNA of marker genes for inflammation and fibrogenesis. The inhaled corticosteroid (ICS), budesonide is also used in some experiments. Furthermore, the supernatants are harvested at the end of the incubation periods in selected experiments to measure the levels of CSF-2 or IL-8 by ELISA as described in (Tran et al. (2005) British Journal of Pharmacology, 145, 123-131). […] The threshold cycle (CT) values determined for target genes were normalized against those obtained for 18S ribosomal RNA (18S rRNA), which was included as internal control. […] RNA was extracted and measured by RT-qPCR. Pro-inflammatory cytokines in the supernatants were measured by ELISA. […]

TGFβ-activated A549 = TGFβ-activated A549 gene expression (modulation of mRNA level, RT-qPCR); assay type: cell-based; details: for CTGF expression / PAI-1 expression / TGF-β-induced suppression of E-cadherin: A549, 0.1-10 μM prior to TGF-β (100 pM) 24 hr; for IC50: Homo sapiens, read-out: -Log IC50 ± SEM (modulation of mRNA level), N-Cadherin induction (converted)
[2] = test system: PAI-1 gene expression in BEAS-2B cells; experiment: TNF-α and TGF-β induced PAI-1 gene expression in BEAS-2B cells (RT-qPCR); assay type: cell-based; details: for TNFa stimulated PAI-1 expression: 30 min pretreatment 1-10 μM, n=1, similar potency and maxima
Description: The primary assay for the activity of the novel CK1δ/ε inhibitors is the modulation of gene expression in the airway epithelial cell line, the BEAS-2B cells. The assay is conducted under several conditions. Generally, TGF-β or TNF-α is used to elicit fibrogenic or inflammatory genes, respectively. The agents are added at a concentration of 10 μM, or at the indicated concentrations for a period of 30 min prior to the addition of TGF-β/TNF-α which are incubated for a further 20 hours before the addition, in some experiments of the glucocorticoid, dexamethasone (Dex, 30 nM) for the final 4 hours of the experiment, prior to harvest of cellular RNA to measure by RT-qPCR the levels of mRNA of marker genes for inflammation and fibrogenesis. The inhaled corticosteroid (ICS), budesonide is also used in some experiments. Furthermore, the supernatants are harvested at the end of the incubation periods in selected experiments to measure the levels of CSF-2 or IL-8 by ELISA as described in (Tran et al. (2005) British Journal of Pharmacology, 145, 123-131). Prior to experimentation, BEAS-2B and A549 cells were incubated in serum-free DMEM containing 0.25% bovine serum albumin (BSA) and insulin-transferrin-selenium—containing supplement (Monomed A; CSL, Parkville, Melbourne, Australia). Where indicated, cells were treated with one of the series of synthesised compounds (0.3-10 μM) prior to exposure to 100 pM TGF-β1 (R&D Systems, Minneapolis, Minn.) or 300 pM bFGF (Promega, Madison, Wis.). Total RNA was extracted from cultured cells using illustra RNAspin Mini RNA Isolation Kit (GE Healthcare). RNA extracts were reverse-transcribed into cDNA using High-Capacity RNA-to-cDNA Kit (Applied Biosystems). Real-time PCR was then performed using a QuantStudio 6 Flex Real-Time PCR System using iTaq Universal SYBR green supermix and the following thermal protocol: 50° C. (2 min), 95° C. (10 min), then 40 cycles of 95° C. (15 sec), 60° C. (1 min). The threshold cycle (CT) values determined for target genes were normalized against those obtained for 18S ribosomal RNA (18S rRNA), which was included as internal control. The generation of specific PCR products was confirmed by dissociation curve analysis. In the same experiment as described in FIG. 1, the expression of the fibrogen plasminogen activator inhibitor-1 was measured (see FIG. 2). The levels of this gene are increased by both TGF-β and by Dex and they synergise when added together. The CK1 inhibitors concentration-dependently reduce the effects of each of the stimuli and further reduce baseline expression. Their potency in this effect is similar, regardless of the condition being considered. In a separate experiment BEAS-2B cells were exposed to TNF-α with(out) 30 min pretreatment with either SS9-010 or PF670462 (1-10 μM). RNA was then extracted and analyzed by RT-qPCR. Each agent inhibited TNFa stimulated PAI-1 expression with similar potency and maxima (see FIG. 3). Data are presented as mean±SD for n=1 (three technical replicates).

liver gene expression = experiment: Liver fibrogenic gene expression after oral (gavage) dosing in bleomycin-treated mice; assay type: in vivo, mouse; details: female C57BL6 mice, 30 mg/kg po once daily day −1 to 3, 3 days after transnasal bleomycin
Description: FIG. 11. The effects of oral (gavage) PF670462 or […] were investigated in female C57BL6 mice, with a focus on liver gene expression. […] Data are presented as mean±SEM (n=4). In studies to ascertain the effect of oral administration of either PF670462 or SS8-058 we harvested the liver on day 3 from mice that had been treated transnasally with bleomycin on day 0 to measure gene expression of products that are implicated in fibrogenesis. Mice were treated once daily by gavage from day −1 to day 3 with either PF670462 or SS8-058 (30 mg/kg, po).

[3] = A549, agent 0.1-10 μM before TGF-β (100 pM) 24 hr

IC50 (TGFβ-activated A549; [3]) [µM] | -Log IC50 ± SEM (modulation of mRNA level), Vimentin induction (TGFβ-activated A549; [3]) | SMILES | TNF-α-induced IL-8 expression and immunoreactive IL-8 in supernatant [1] | CTGF expression (TGFβ-activated A549) | PAI-1 expression (TGFβ-activated A549) | TGF-β-induced suppression of E-cadherin (TGFβ-activated A549) | TNFa stimulated PAI-1 expression [2] | PAI-1 mRNA level, TGF-β ([2]; agent 10 μM) [fold control] | PAI-1 mRNA level, TNF-α (n = 2) ([2]; agent 10 μM) [fold control] | PAI-1 mRNA level, vehicle (no stimulus) ([2]; agent 10 μM) [fold control] | liver baseline mRNA level of PAI-1 (liver gene expression) | liver baseline mRNA level of TMP1 (liver gene expression) | PAI-1 mRNA level, TGF-β ([2]; agent 3 μM) [fold control] | PAI-1 mRNA level, TNF-α (n = 2) ([2]; agent 3 μM) [fold control]
2 | – | CNc1nccc(-c2c(-c3ccc(F)cc3)ncn2C2CCCCC2)n1 [SS9-010, 4-(1-Cyclohexyl-4-(4-fluorophenyl)-1H-imidazol-5-yl)-N-methylpyrimidin-2-amine] | active inhibitors | concentration-dependently inhibited | concentration-dependently inhibited | restored | inhibited | 0.64 ± 0.05 | 0.43 | 0.18 ± 0.00 | – | – | – | –
– | – | CCCCCCCCN1CCC(n2cnc(-c3ccc(F)cc3)c2-c2ccnc(N)n2)CC1 [SS8-058, 4-(4-(4-Fluorophenyl)-1-[1-octylpiperidin-4-yl]-1H-imidazol-5-yl)pyrimidin-2-amine] | – | – | – | – | – | 9.14 ± 1.23 | 0.91 | 0.37 ± 0.04 | significant reductions | significant reductions | – | –
4.47 | Inactive | Cl.Nc1nccc(-c2c(-c3ccc(F)cc3)ncn2C2CCCCC2)n1 [PF670462, 4-(1-Cyclohexyl-4-(4-fluorophenyl)-1H-imidazol-5-yl)pyrimidin-2-amine hydrochloride, reference compound] | active inhibitors | concentration-dependently inhibited | concentration-dependently inhibited | restored | inhibited | 1.64 ± 0.27 | 0.47 | 0.26 ± 0.04 | significant reductions | significant reductions | 1.30 ± 0.18 | 0.74
